{"source": "paper PMC5408584", "about": "(Lipids, 2016)", "key": {"L-cells": {"test_system": "L-cells", "experiment": "Cellular uptake of NBD-labeled probes by confocal imaging", "assay_type": "cell-based, murine", "conditions": "Fig 3B"}, "rat FABP1 [1]": {"molecular_target": "T1, rat FABP1 (Rattus norvegicus, UniProt P02692)", "T1 sequence (P02692 1-127)": "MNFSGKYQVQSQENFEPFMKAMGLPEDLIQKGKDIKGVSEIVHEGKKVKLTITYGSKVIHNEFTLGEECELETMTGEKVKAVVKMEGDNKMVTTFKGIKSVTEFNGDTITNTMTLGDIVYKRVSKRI", "conditions": "cited from earlier work; for number of ligand molecules bound per FABP1 (binding sites): rat FABP1, fractional saturation curves, Fig 2B; for Kd: read-out: Kd, direct binding of NBD-labeled ligand, rat FABP1, mean ± SE n=3, Fig 2B"}, "human FABP1 [2]": {"test_system": "human FABP1", "conditions": "cited from earlier work"}, "human FABP1 T94A variant": {"test_system": "human FABP1 T94A variant", "conditions": "T94A variant vs WT human FABP1; cited from earlier work"}, "human FABP1 [3]": {"molecular_target": "human FABP1", "conditions": "read-out: Ki (printed Kids), ANS displacement; cited from earlier work"}, "human WT FABP1 [4]": {"molecular_target": "T2, human WT FABP1 (Homo sapiens, UniProt P07148)", "T2 sequence (P07148 1-127)": "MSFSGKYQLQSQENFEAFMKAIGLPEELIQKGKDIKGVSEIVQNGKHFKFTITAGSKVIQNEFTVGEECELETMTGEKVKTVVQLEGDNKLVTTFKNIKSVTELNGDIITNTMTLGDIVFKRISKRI", "experiment": "DAUDA fluorescent ligand displacement assay, human FABP1", "assay_type": "binding", "conditions": "AEA 0–6μM, Fig 1B"}, "human WT FABP1 [5]": {"molecular_target": "T2, human WT FABP1", "experiment": "cis-parinaroyl-CoA fluorescent ligand displacement assay, human FABP1", "assay_type": "binding", "conditions": "AEA 0–6μM, Fig 1B"}, "rat FABP1 [6]": {"molecular_target": "T1, rat FABP1", "conditions": "read-out: Ki, displacement of FABP1-bound cis-parinaroyl-CoA; rat FABP1, mean ± SE n=3, Fig 1A; cited from earlier work"}}, "data": [{"compound": "O=C(CCC/C=C\\C/C=C\\C/C=C\\C/C=C\\CCCCCNc1ccc([N+](=O)[O-])c2nonc12)OC(CO)CO", "note": "[NBD-2-AG]", "values": [{"measurement": "maximal uptake, fold higher than that of NBD-ARA", "setting": "L-cells", "result": "at least 1.6 fold"}, {"measurement": "number of ligand molecules bound per FABP1 (binding sites)", "setting": "rat FABP1 [1]", "result": "single"}, {"measurement": "Kd", "setting": "rat FABP1 [1]", "result": "250 ± 50", "unit": "nM"}]}, {"compound": "CCCCCCCC/C=C\\CCCCCCCC(=O)SCCNC(=O)CCNC(=O)[C@H](O)C(C)(C)COP(=O)(O)OP(=O)(O)OC[C@H]1O[C@@H](n2cnc3c(N)ncnc32)[C@H](O)[C@@H]1OP(=O)(O)O", "note": "[oleoyl-CoA]", "values": [{"measurement": "fold higher affinity of human FABP1 compared to rat FABP1", "setting": "human FABP1 [2]; human vs rat FABP1 within the same study", "result": 2.2, "unit": "fold"}]}, {"compound": "O=C(O)CCC/C=C\\C/C=C\\C/C=C\\C/C=C\\CCCCCNc1ccc([N+](=O)[O-])c2nonc12", "note": "[NBD-ARA, 20-[(7-nitro-2-1,3-benzoxadiazol-4-yl)amino] arachidonic acid]", "values": [{"measurement": "number of ligand molecules bound per FABP1 (binding sites)", "setting": "rat FABP1 [1]", "result": "two"}, {"measurement": "Kd", "setting": "rat FABP1 [1]", "result": "660 ± 60", "unit": "nM"}]}, {"compound": "CC(C)CCC[C@@H](C)[C@H]1CC[C@H]2[C@@H]3CC=C4C[C@@H](O)CC[C@]4(C)[C@H]3CC[C@]12C", "note": "[cholesterol]", "values": [{"measurement": "fold increase in affinity of human FABP1 by T94A substitution", "setting": "human FABP1 T94A variant", "result": 3, "unit": "fold"}, {"measurement": "fold weaker affinity of human FABP1 compared to rat FABP1", "setting": "human FABP1 [2]; human vs rat FABP1", "result": 3.5, "unit": "fold"}]}, {"compound": "CCCCC/C=C\\C/C=C\\C/C=C\\C/C=C\\CCCC(=O)O", "note": "[ARA, arachidonic acid]", "values": [{"measurement": "Ki", "setting": "human FABP1 [3]", "result": "113 ± 6", "unit": "nM"}]}, {"compound": "CCCCC/C=C\\C/C=C\\C/C=C\\C/C=C\\CCCC(=O)NCCO", "note": "[AEA, N-arachidonoylethanolamide]", "values": [{"measurement": "displacement of human FABP1 bound DAUDA", "setting": "human WT FABP1 [4]", "result": "did displace"}, {"measurement": "displacement of human FABP1 bound cis-parinaroyl CoA", "setting": "human WT FABP1 [5]", "result": "did not displace"}, {"measurement": "Ki", "setting": "rat FABP1 [6]", "result": "400 ± 20", "unit": "nM"}]}, {"compound": "CCCCC/C=C\\C/C=C\\C/C=C\\C/C=C\\CCCC(=O)OC(CO)CO", "note": "[2-AG, 2-arachidonoylglycerol]", "values": [{"measurement": "Ki", "setting": "rat FABP1 [6]", "result": "205 ± 3", "unit": "nM"}]}, {"compound": "O=C(CCC/C=C\\C/C=C\\C/C=C\\C/C=C\\CCCCCNc1ccc([N+](=O)[O-])c2nonc12)NCCO", "note": "[NBD-AEA, 20-[(7-nitro-2-1,3-benzoxadiazol-4-yl)amino] arachidonoylethanolamide]", "values": [{"measurement": "maximal uptake, fold higher than that of NBD-ARA", "setting": "L-cells", "result": "at least 1.6 fold"}, {"measurement": "number of ligand molecules bound per FABP1 (binding sites)", "setting": "rat FABP1 [1]", "result": "single"}, {"measurement": "Kd", "setting": "rat FABP1 [1]", "result": "800 ± 200", "unit": "nM"}]}]}
